Measured values taken from ChEMBL document CHEMBL5604063, “ASAP - DENV-2 NS2B-NS3 protease fluorescence dose response” (2024).
Several values for one entry are separate records, joined by “and”; a condition that tells them apart may be missing. Equal values may be shown once.

What was measured:
[1] = target: T1, Genome polyprotein (dengue virus type 2, UniProt P29990); format: functional, Thailand/16681/1984
[2] = target: T1, Genome polyprotein; format: functional, Thailand/16681/1984; remark: listed apart in the source

T1 sequence (P29990 1346-1475 limits assumed): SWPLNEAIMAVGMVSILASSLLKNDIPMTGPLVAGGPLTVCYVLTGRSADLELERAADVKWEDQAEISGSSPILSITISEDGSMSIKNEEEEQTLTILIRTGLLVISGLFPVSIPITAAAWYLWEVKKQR
T1 sequence (P29990 1476-2093 limits assumed): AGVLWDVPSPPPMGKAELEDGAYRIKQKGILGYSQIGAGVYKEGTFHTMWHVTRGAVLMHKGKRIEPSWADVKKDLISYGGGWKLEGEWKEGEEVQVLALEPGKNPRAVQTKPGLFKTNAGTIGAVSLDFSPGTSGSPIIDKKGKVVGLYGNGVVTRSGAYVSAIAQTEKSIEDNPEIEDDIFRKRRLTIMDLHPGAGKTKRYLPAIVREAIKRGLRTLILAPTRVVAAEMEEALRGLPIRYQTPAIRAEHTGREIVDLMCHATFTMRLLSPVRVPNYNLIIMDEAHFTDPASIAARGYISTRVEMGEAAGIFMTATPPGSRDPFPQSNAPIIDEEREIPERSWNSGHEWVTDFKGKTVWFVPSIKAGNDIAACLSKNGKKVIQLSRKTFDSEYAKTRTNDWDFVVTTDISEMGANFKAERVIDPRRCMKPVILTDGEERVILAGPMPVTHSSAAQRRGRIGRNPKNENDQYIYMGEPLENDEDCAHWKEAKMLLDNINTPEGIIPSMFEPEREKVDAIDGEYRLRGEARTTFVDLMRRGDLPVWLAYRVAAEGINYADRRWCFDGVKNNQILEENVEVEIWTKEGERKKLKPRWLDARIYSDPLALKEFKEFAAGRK

## NC12CCC(CNC(=O)c3cc(Cl)cc(NC(=O)OCc4ccccc4)c3)(CC1)OC2
[1]
  IC50: > 100 µM
[2]
  IC50: > 99.5 µM

## O=C(Nc1cc(Cl)cc(C(=O)Nc2cccc([C@H]3C[C@H]3C(=O)O)c2)c1)OCc1ccccc1
[1]
  IC50: 12.3 µM (3×) and 10.2 µM and 15.6 µM and 14.8 µM
[2]
  IC50: 19.6 µM and 25.7 µM and 26.9 µM and 24.8 µM

## NCc1cccc(NC(=O)c2nc(C3CC3)n(-c3ccccc3Cl)n2)c1
[1]
  IC50: > 100 µM
[2]
  IC50: > 99.5 µM

## CNC(=O)[C@H](Nc1ccc(-c2nnn[nH]2)cc1)c1cc(Cl)cc(C2CC2)c1
[1]
  IC50: > 100 µM
[2]
  IC50: > 99.5 µM

## Cn1ccnc1COc1cccc([C@H](NC(=O)OCc2ccccc2)C(=O)Nc2cccc(CN)c2)c1
[1]
  IC50: > 100 µM
[2]
  IC50: > 99.5 µM

## O=C(Nc1cc(Cl)cc(C(=O)Nc2ccnc([C@H]3CCCN3)n2)c1)OCc1ccccc1
[1]
  IC50: > 100 µM
[2]
  IC50: > 99.5 µM

## O=C1Cc2c(cccc2C(=O)N[C@H]2C[C@H](OC(F)F)C2)N1
[1]
  IC50: > 100 µM
[2]
  IC50: > 99.5 µM

## NCc1cccc(NC(=O)c2cc(C3CC3)n3nc(C(F)(F)F)cc3n2)c1
[1]
  IC50: > 100 µM
[2]
  IC50: > 99.5 µM

## Cc1c(C(=O)Nc2cc(CN)ccc2F)cc(C2CC2)n1C
[1]
  IC50: > 100 µM
[2]
  IC50: > 99.5 µM

## O=C(Nc1cc(Cl)cc(C(=O)Nc2cccc(-c3nnn[nH]3)c2)c1)OCc1ccccc1
[1]
  IC50: 11.1 µM and 11 µM
[2]
  IC50: 13.6 µM

## O=C(Nc1ccc2c(c1)CN[C@H]2C[C@H](O)CO)c1cc(Cl)cc2[nH]ncc12
[1]
  IC50: 80.2 µM
[2]
  IC50: > 99.5 µM

## CC1([C@H]2CCCN(C(=O)Nc3ccc4c(c3)CNC4)C2)CC1
[1]
  IC50: > 100 µM
[2]
  IC50: > 99.5 µM

## C=CC[C@H]1NCc2cc(N[C@H](C(=O)NCC(F)F)c3cc(Cl)cc(C4CC4)c3)ccc21
[1]
  IC50: > 100 µM
[2]
  IC50: > 99.5 µM

## CNC(=O)[C@]1(Nc2ccc3c(c2)CNC3)C(=O)Nc2ccc(Cl)cc21
[1]
  IC50: > 100 µM
[2]
  IC50: > 99.5 µM

## O=C(Nc1ccc2c(c1)CNC2)c1cc(Cl)cc2[nH]c(C3(n4ccnn4)CC3)nc12
[1]
  IC50: > 100 µM
[2]
  IC50: > 99.5 µM

## O=C(Nc1ccc2c(c1)CNC2)c1cc(Br)cc2cccnc12
[1]
  IC50: > 100 µM
[2]
  IC50: > 99.5 µM

## NCc1ccc([C@H]2C[C@@H]2c2cc(Cl)cc(NC(=O)OCc3ccccc3)c2)cc1
[1]
  IC50: > 100 µM
[2]
  IC50: 9.84 µM and 11.1 µM

## CC(C)(C)OC(=O)NCc1cc(NC(=O)c2cc(Cl)cc(NC(=O)OCc3ccccc3)c2)cc(-c2nn[nH]n2)c1
[1]
  IC50: 10.7 µM
[2]
  IC50: 7.46 µM

## NCc1cccc(NC(=O)c2c(C(F)(F)F)nc3n2CCCC3)c1
[1]
  IC50: > 100 µM
[2]
  IC50: > 99.5 µM

## C[C@](C#N)(Nc1ccc2c(c1)CNC2)c1cccc(Cl)c1
[1]
  IC50: > 100 µM
[2]
  IC50: > 99.5 µM

## O=C(Nc1cc(Cl)cc(-c2cc(NCc3ccccc3)c(C(=O)O)cn2)c1)OCc1ccccc1
[1]
  IC50: 5.35 µM
[2]
  IC50: 7.58 µM

## CC(C)CNC(=O)[C@H](Nc1ccc2c(c1)CNC2)c1cc(Cl)cc2[nH]ncc12
[1]
  IC50: > 100 µM
[2]
  IC50: > 99.5 µM

## NCc1cccc(NC(=O)[C@H](NC(=O)OCc2ccccc2)c2cccc(OCc3ccncc3)c2)c1
[1]
  IC50: > 100 µM
[2]
  IC50: > 99.5 µM

## O=C(Nc1ccc2c(c1)CNC2)c1cc(Cl)cc2c1cnn2C1CCOCC1
[1]
  IC50: > 100 µM
[2]
  IC50: > 99.5 µM

## Cc1c(C(=O)Nc2cc(C(=O)N3CC[C@H](O)C3)ccn2)cc(C2CC2)n1C
[1]
  IC50: > 100 µM
[2]
  IC50: > 99.5 µM

## O=C(Nc1ccc2c(c1)CNC2)c1cccc2[nH]ncc12
[1]
  IC50: > 100 µM
[2]
  IC50: > 99.5 µM

## CNC(=O)[C@H](Nc1cc(Cl)cc(NC(=O)OCc2ccccc2)c1)c1cccc(-c2nn[nH]n2)c1
[1]
  IC50: 22.2 µM and 18 µM
[2]
  IC50: 45.9 µM and 44 µM

## Cc1cc(NC(=O)c2cc(C3CC3)n(C)c2C)ccc1OC1CCOCC1
[1]
  IC50: > 100 µM
[2]
  IC50: > 99.5 µM

## O=C1Cc2c(cccc2C(=O)Nc2cc(Br)c3ncnn3c2)N1
[1]
  IC50: > 100 µM
[2]
  IC50: > 99.5 µM

## O=C(Nc1ccc2c(c1)CNC2)c1cccc(-c2cnco2)c1
[1]
  IC50: 57.7 µM and 70.3 µM
[2]
  IC50: 27.6 µM

## NCCCc1cccc(NC(=O)c2cc(Cl)cc(NC(=O)OCc3ccccc3)c2)n1
[1]
  IC50: > 100 µM
[2]
  IC50: 62.1 µM

## NCc1cccc(NC(=O)c2cc(Cl)cc3c2OCC3)c1
[1]
  IC50: > 100 µM
[2]
  IC50: > 99.5 µM

## CCS(=O)(=O)c1ccc(Cl)cc1C(=O)Nc1cccc(CN)c1
[1]
  IC50: > 100 µM
[2]
  IC50: > 99.5 µM

## O=C(NCc1ccc2c(c1)CCNC2)c1cc(Cl)cc2[nH]ncc12
[1]
  IC50: > 100 µM
[2]
  IC50: > 99.5 µM

## O=C(Nc1ccc([C@H]2CCNC2)cc1)c1cc(Cl)cc2[nH]ncc12
[1]
  IC50: 97.3 µM
[2]
  IC50: 87.8 µM

## CC(C)Oc1cc(CN)ccc1NS(=O)(=O)c1ccc(Oc2ccccc2Cl)cc1
[1]
  IC50: > 100 µM
[2]
  IC50: > 99.5 µM

## CC(C)CNC(=O)[C@H](Nc1cccc(-c2nnn[nH]2)c1)c1cc(Cl)cc(C2CC2)c1
[1]
  IC50: 47.3 µM
[2]
  IC50: 74.4 µM

## O=C1Cc2c(cccc2C(=O)N[C@H]2C[C@H](Cn3ccnc3)C2)N1
[1]
  IC50: > 100 µM
[2]
  IC50: > 99.5 µM

## N#CC[C@H](N)c1cccc(NC(=O)c2cc(Cl)cc(NC(=O)OCc3ccccc3)c2)c1
[1]
  IC50: > 100 µM
[2]
  IC50: > 99.5 µM

## Cc1cc(C(=O)Nc2cccc(CN)c2)cc(NC(=O)OCc2ccccc2)c1Cl
[1]
  IC50: > 100 µM
[2]
  IC50: 55.4 µM

## CN(C)C(=O)Nc1cccc([C@@H]2C[C@H]2c2cc(Cl)cc(NC(=O)OCc3ccccc3)c2)c1
[1]
  IC50: > 100 µM
[2]
  IC50: > 99.5 µM

## O=C(Nc1ccc2c(c1)CNC2)c1cc(Br)cc2[nH]c([C@H]3CCCO3)nc12
[1]
  IC50: > 100 µM
[2]
  IC50: > 99.5 µM

## N[C@H]1COC[C@H]1n1cc(C(=O)Nc2cc(-c3cccnc3)ccn2)cn1
[1]
  IC50: > 100 µM
[2]
  IC50: > 99.5 µM

## Clc1ccc2c(CN3CCC(c4c[nH]c5ncccc45)CC3)c[nH]c2c1
[1]
  IC50: > 100 µM
[2]
  IC50: > 99.5 µM

## O=C(Nc1ccc2c(c1)CNC2)c1cc(F)cc2[nH]c(CC[C@H]3CCCOC3)nc12
[1]
  IC50: > 100 µM
[2]
  IC50: 76.2 µM

## O=C(Nc1ccc2c(c1)CNC2)c1n[nH]c(=O)c2ccccc12
[1]
  IC50: > 100 µM
[2]
  IC50: 36.8 µM

## Cc1[nH]c2ccc(Cl)cc2c1Cc1ccc(-c2nnn[nH]2)cc1
[1]
  IC50: 21 µM
[2]
  IC50: 42.6 µM

## COc1ccc(CN2Cc3cc(NC(=O)c4cc(Cl)cc5[nH]ncc45)cc(Br)c3C2)cc1
[1]
  IC50: > 100 µM
[2]
  IC50: > 99.5 µM

## CC(C)(C)Cn1c(=O)[nH]c2cccc(C(=O)Nc3cccc(CN)c3)c21
[1]
  IC50: > 100 µM
[2]
  IC50: > 99.5 µM

## O=C(Nc1ccc(-c2nnn[nH]2)cc1)c1cc(Cl)cc(C2CC2)c1
[1]
  IC50: 37.1 µM and 36 µM
[2]
  IC50: 69.5 µM

## O=C(Nc1cc(-c2cccnc2)ccn1)c1cc2n(n1)CC1(CC1)C2
[1]
  IC50: > 100 µM
[2]
  IC50: > 99.5 µM

## NCc1cccc(NC(=O)Cc2cccc(Oc3ccncc3Br)c2)c1
[1]
  IC50: > 100 µM
[2]
  IC50: > 99.5 µM

## Cn1nc([C@H](C#N)Nc2cccc([C@H]3CCOC3)c2)cc1C1CC1
[1]
  IC50: > 100 µM
[2]
  IC50: > 99.5 µM

## NCc1ccc(CNC(=O)c2cc(Cl)cc(NC(=O)OCc3ccccc3)c2)c(F)c1
[1]
  IC50: > 100 µM
[2]
  IC50: > 99.5 µM
